Test: LC50 of vanillin MEC formulation (pathogen not named)
Format: in vivo
Details: ppm of Vanillin, applied as 15% MEC formulation; organism not given
Description: The unit commonly used in the art to determine the effectiveness of the antipathogenic formulation is LC50. This number represents the concentration of formulation at which 50% of pathogens die.

**Q.** Which LC50 does the source give for `COc1cc(C=O)ccc1O` [Vanillin, 4-Hydroxy-3-Methoxybenzaldehyde] here?
**A.** 66 ppm

Reference: patent US20100291247A1, “OIL FORMULATIONS AND METHODS OF USE” (priority 2007, published 2010)
